Assay results reported in patent US20090232735A1, “USE OF FRUCTOSE-BASED THERAPIES FOR THE TREATMENT OF CANCER” (CEDARS-SINAI MEDICAL CENTER, priority 2005, published 2009).

Assays:
GLUT-5 mRNA = GLUT-5 mRNA by quantitative real-time RT-PCR in MCF-7 cells; type: cell-based, human
Experimental: FIG. 10 depicts GLUT-5 expression levels in accordance with an embodiment of the present invention. MCF-7 breast cancer cells were incubated in 2 mM glucose (Glu), 5.5 mM glucose (Glu) or 5.5 mM fructose (Fru) for 4 or 24 hours, after which GLUT-5 expression was quantified using real-time RT-PCR, normalized to GAPDH levels, and expressed as fold-increase compared to GLUT-5 levels detected in MCF-7 cells cultured in 2 mM glucose for a similar time period.
Cellular fructose uptake is facilitated by a member of solute carrier family 2, called glucose transporter type 5 (GLUT-5). Following incubation of MCF-7 breast cancer cells in 2 mM, 5.5 mM glucose or 5.5 mM fructose for […], total RNA was harvested, and analyzed by quantitative real-time RT-PCR analysis using GLUT-5 specific primers to quantify GLUT-5 mRNA expression. GLUT-5 expression was normalized to GAPGH mRNA expression, and expressed as fold-change in comparison to control breast cancer cells incubated in 2 mM glucose for 4, and 24 hours.

[1] = system: PANC-1 pancreatic cancer cells; assay: BRDU uptake in PANC-1 cells; type: cell-based, human; settings: PANC-1, 5.5 mM fructose, 72 h
Experimental: FIG. 16 depicts BRDU uptake following treatment with glucose or fructose in accordance with an embodiment of the present invention. PANC-1 cells were pre-incubated in 2 mM glucose prior to treatment with 5.5 mM glucose or fructose for 72 h. BRDU (0.01 mg/ml) was added to the medium at 48 h, and BRDU-uptake quantified at 72 h.
As a further measure of PANC-1 proliferative rates, the inventors compared bromodeoxyuridine (BRDU) uptake following PANC-1 cell treatment as before with 2 mM, and 5.5 mM glucose, or 5.5 mM fructose for 72 h. In the final 12 h, 10 μM BRDU was added to the glucose-, and fructose-treated cells, after which BRDU-positive cells were counted. […] A further question the inventors sought to address was would the fructose-induced pancreatic cancer proliferative rates be maintained if the PANC-1 cells were also exposed to, and able to utilize their customary culture glucose concentrations. Therefore, the inventors cultured PANC-1 cells for 72 h in a range of glucose concentrations (0-15 mM) admixed with a range of fructose concentrations (0-15 mM).

[2] = system: AP-1 activation in PANC-1 cells; assay: AP-1 probe binding assay, PANC-1 nuclear extracts; type: cell-based, human; settings: PANC-1, 5.5 mM fructose, 48 h
Experimental: FIG. 24 depicts luciferase activity of PANC-1 cells and primary culture of surgically resected pancreatic tumor cells in accordance with an embodiment of the present invention. PANC-1 pancreatic cancer cells and a primary culture of a surgically resected pancreatic tumor were incubated in 2 mM glucose, 5.5 mM glucose or 5.5 mM fructose for 48 h, after which nuclear extracts were incubated with a biotinylated AP-1 probe, and detected by an antibody-linked colorimetric method. *, p<0.01
In separate experiments PANC-1 cells, and primary cultures of surgically resected pancreatic tumors were incubated in 2 mM glucose, or 5.5 mM glucose or 5.5 mM fructose for 48 h, after which nuclear extracts were incubated with a biotinylated AP-1 probe in binding buffer. AP-1/AP1 probe complexes were next conjugated to a streptavidin-coated assay plate and detected using an AP-1 specific antibody, followed by binding of a horseradish-peroxidase conjugated secondary antibody, and detection by a colorimetric reagent.

transketolase (TKK) = assay: Transketolase activity (NADH oxidation) in PANC-1 lysates; type: cell-based, human; settings: PANC-1, 5.5 mM fructose
Experimental: FIG. 34 depicts quantitation of transketolase activity in pancreatic cancer PANC-1 cells following incubation in 2 mM glucose, 5.5 mM glucose, and 5.5 mM fructose for 24 h, 48 h, and 72 h respectively, in accordance with an embodiment of the present invention.
The inventors believe that fructose-treatment of pancreatic cancer cells led to an increase in TKK-driven nucleic acid synthesis, and thus fructose-treatment would result in an increase in either PANC-1 TKK expression and/or activity in comparison to equivalent glucose concentrations. Western blot analysis on protein lysates derived from fructose-, and glucose-treated PANC-1 cells were performed (5.5 mM fructose, and glucose for 24, and 48 h as per previous protocol) using a specific TKK antibody, and compared TKK expression in the fructose-, and glucose-treated PANC-1 cells. As depicted in FIG. 33, TKK expression at 24 h, and 48 h in protein lysates derived from 5.5 mM glucose-treated PANC-1 cells was increased in comparison to expression in 2 mM glucose-treated cells. However, highest TKK expression was observed after 5.5 mM fructose treatment at 24 h, and 48 h, and TKK levels were almost 2-fold higher in 5.5 mM fructose-treated, in comparison to 5.5 mM glucose-treated cells (p<0.01). […] After gentle mixing the absorbance of the mixture was measured at 10 min intervals for 2 h at 340 nm. Transketolase activity was then derived from the difference in absorbance at 10, and 80 minutes, and expressed as nmol/min/million cells. […] Pancreatic cancer proliferation rates were then measured using the MTS assay (FIG. 35).

[3] = system: pancreatic cancer development; settings: cited from earlier work

With `O=C(CO)[C@@H](O)[C@H](O)[C@H](O)CO` [fructose] the “increase in GLUT-5 mRNA compared to cells in 5.5 mM glucose” value (GLUT-5 mRNA; MCF-7, 5.5 mM fructose, 24 hour incubation) was “two-fold increase”, the “change in GLUT-5 mRNA expression” value (GLUT-5 mRNA; MCF-7, 4 hours, vs 2 mM glucose) was “no significant change” and the “BRDU-uptake higher than with 5.5 mM glucose” value [1] was ~75%. For the same compound, the “AP-1 luciferase reporter activity higher than in 5.5 mM glucose” value [2] was “approximately 40%”, the “TKK activity higher than 5.5 mM glucose-treated cells” value (transketolase (TKK); 24 h) was 2 fold and the “TKK activity higher than 5.5 mM glucose-treated cells” value (transketolase (TKK); 48 h) was 3 fold. For the same compound, the “TKK activity higher than 5.5 mM glucose-treated cells” value (transketolase (TKK); 72 h) was 1.7 fold, the “relative risk of pancreatic cancer” value ([3]; high fructose intake, women with increased BMI (>25) or sedentary lifestyle) was 3.17 and the “increased risk of pancreatic cancer development” value ([3]; women reporting a high fructose-intake) was 57%.
